Assay results from patent US20100166726A1, “COMPOSITIONS FOR IMPROVING CELLULAR UPTAKE OF A CHEMOTHERAPEUTIC AGENT IN A CELL EXHIBITING MUCIN DEREGULATION” (NORTHEASTERN UNIVERSITY, priority 2007, published 2010).

Tests used:
[1] = tested on: Capan-1 cells; assay: Cytotoxic activity of chemotherapeutic agents with or without benzyl-α-GalNAc pretreatment, sulforhodamine B assay; format: cell-based, human; details: benzyl-α-GalNAc 48 hr, then drug 24 hr
Procedure: Human pancreatic cancer cell morphology was visualized using light microscopy. Six hydrophilic chemotherapeutic agents namely cisplatin, gemcitabine, carboplatin, methotrexate, doxorubicin, vinblastine and six lipophilic agents namely lomustine, busulfan, camptothecin, etoposide, teniposide and paclitaxel with molecular weights ranging from approximately 200 to 900 were used. Two different concentrations of each drug type were evaluated in the presence and absence of heavily O-glycosylated chains with Benzyl-α-GalNAc as O-glycosylation inhibitor. Cell viability was determined using Sulforhodamine B assay. The percent change in cell viability was used to assess the overall benefit of reducing mucin in Capan-1 cells when different cytotoxic drugs are employed.
The growth inhibitory effect of the chemotherapeutic agent after 24 hr of exposure was determined by sulforhodamine B assay and percent of viable cells was calculated as follows: […]

[2] = tested on: Capan-1 cells; assay: Cellular toxicity of benzyl-α-GalNAc, sulforhodamine B assay; format: cell-based, human; details: 72 hr exposure
Procedure: (§1) O-glycosylation is critical for mucin formation. […] These cellular toxicity studies were performed as follows.

[3] = tested on: HPAF-II cells; assay: as above; format: cell-based, human; details: 72 hr exposure
Procedure: as §1

[4] = tested on: Capan-1, HPAF-II, and U-87 MG cells; assay: Cell morphology by DIC microscopy after benzyl-α-GalNAc exposure; format: cell-based, human; details: 72 hr exposure at maximum non-toxic concentration
Procedure: To observe the effects of benzyl-α-GalNAc exposure on cell morphology, differential interference contract (DIC) microscopy was employed. Sterile cover slips were placed in six-well plates (Corning, N.Y.). Capan-1, HPAF-II, and U-87 MG cells were next seeded at 1×10^4 per ml in the same 6-well plates.

[5] = tested on: Capan-1 cells; assay: Anti-MUC1 (CD227) antibody association after benzyl-α-GalNAc exposure (microplate fluorescence, FACS); format: cell-based, human
Procedure: (§2) In order to determine whether the concentrations of benzyl-α-GalNAc employed are sufficient to inhibit MUC1 O-glycosylation, we observed the alterations in anti-MUC1 (CD227) association after exposure to the inhibitor. The antibody association studies were performed as follows. […] After each exposure time point the cells were washed with 1×PBS and 1 ml of fresh media was added to each well. The cells were then exposed to 4 μl/well of anti-MUC1 antibody.
(§3) Fluorescence-activated cell-sorting (FACS) analysis was then performed as follows. […] After 48 hr exposure to benzyl-α-GalNAc cells were washed with 1×PBS and 1 ml of fresh media was added to each well. The cells were then exposed to 4 μl/well of CD227 antibody. Following 24 hr incubation with the antibody, cells were washed with 1×PBS to remove any unassociated antibody and cells were detached using 0.5 ml/well trypsin. Cells were then washed with 1×PBS and antibody association was determined using FACS analysis.

[6] = tested on: HPAF-II cells; assay: as above; format: cell-based, human
Procedure: as §2, §3

[7] = tested on: U-87 MG cells; assay: Anti-MUC1 (CD227) antibody association after benzyl-α-GalNAc exposure (FACS); format: cell-based, human; details: 48 hr exposure
Procedure: as §3

[8] = tested on: HPAF-II cells; assay: 5-FU cytotoxicity with or without benzyl-α-GalNAc pre-exposure, sulforhodamine B assay; format: cell-based, human; details: 48 hr exposure followed by 5-FU (108 μmol/ml) 24 hr
Procedure: The effects of increasing benzyl-α-GalNAc concentrations on cytotoxicity of 5-FU (108 μmol/ml) against HPAF-II cells was first tested. […] The growth inhibitory effect of 5-FU after 24 hr of exposure was determined using sulforhodamine B (Sigma-Aldrich, St. Louis, Mo.) assay the percent of viable cells was calculated as follows: […]

[9] = tested on: Capan-1 cells; assay: Cell viability and morphology after removal of benzyl-α-GalNAc; format: cell-based, human
Procedure: (§4) These experiments were conducted to determine whether the successful elimination of the glycosylated functional groups surrounding the MUC1 peptide core limit the capacity of cells to proliferate once benzyl-α-GalNAc has been removed. A significant change in cells' ability to multiply and divide due to exposure to benzyl-α-GalNAc would affect the measure of MUC1's role in our experiment. Capan-1 and HPAF-II cells were exposed to benzyl-α-GalNAc for 48 hr. Percent of cell viability was determined 24 hr, 48 hr, and 72 hr after removal of benzyl-α-GalNAc. […] Following 48 hr exposure to benzyl-α-GalNAc cells were washed with 1×PBS and then allowed to grow for an additional 24 hr, 48 hr, and 72 hr in fresh media.

[10] = tested on: HPAF-II cells; assay: as above; format: cell-based, human
Procedure: as §4

[11] = tested on: Capan-1 tumors; assay: MUC1 carbohydrate staining of tumors after intratumoral benzyl-α-GalNAc; format: in vivo, SCID mice; details: four intratumoral injections (10 mg/ml, 0.1 cc) at intervals of 48 hr
Procedure: (§5) All animal work was performed in the animal facility at Northeastern University, Boston, Mass. in accordance with the institutional guidelines. Female SCID (severe combined immunodeficient mice), 6 to 8 weeks old purchased from Massachusetts General Hospital, Boston, Mass. were used for our study since they have been used successfully for developing human xenografts of pancreatic tumors. To establish the tumors, 2.5×10^6 Capan-I cells in 0.1 ml of cell culture medium were injected into the subcutaneous dorsa of all mice. Mice were weighed daily using a digital weighing balance (AccuSeries®, Fisher Scientific, Arvada, Colo.) and tumor volumes were also measured every day using an electronic digital caliper (Control Company, Friendswood, Tex.). Tumor volumes were calculated using the formula a^2×b×0.52, where “a” is the longer diameter and “b” is the shorter diameter. […]
(§6) In order to test the in vivo effect of Benzyl-α-GalNAc in a pancreatic tumor model, Benzyl-α-GalNAc was administered locally into the tumor mass of mice via intratumoral injections (10 mg/ml, 0.1 cc). […] Following intratumoral injections, the sections of subcutaneous Capan-1 and HPAF-II tumors were analyzed for MUC1 carbohydrate staining (FIG. 7B).

[12] = tested on: HPAF-II tumors; assay: as above; format: in vivo, SCID mice; details: four intratumoral injections (10 mg/ml, 0.1 cc) at intervals of 48 hr
Procedure: as §5, §6

[13] = tested on: Capan-1 tumors; assay: Anti-tumoral activity in Capan-1 pancreatic tumor model (tumor volume, histochemical staining, neoplastic cell density); format: in vivo, SCID mice
Procedure: All animal work was performed in the animal facility at Northeastern University, Boston, Mass. in accordance with the institutional guidelines. Female SCID (severe combined immunodeficient mice), 6 to 8 weeks old purchased from Massachusetts General Hospital, Boston, Mass. were used for our study since they have been used successfully for developing human xenografts of pancreatic tumors. To establish the tumors, 2.5×10^6 Capan-I cells in 0.1 ml of cell culture medium were injected into the subcutaneous dorsa of all mice. Mice were weighed daily using a digital weighing balance (AccuSeries®, Fisher Scientific, Arvada, Colo.) and tumor volumes were also measured every day using an electronic digital caliper (Control Company, Friendswood, Tex.). Tumor volumes were calculated using the formula a^2×b×0.52, where “a” is the longer diameter and “b” is the shorter diameter. Once the tumor volumes were approximately 50 mm^3-70 mm^3 the experimental groups received intratumoral injections of benzyl-α-GalNAc (0.1 ml injection; 10 mg/ml) whereas […] at intervals of 48 hr. When the tumor volumes were approximately 100 mm^3 5-FU was administered via the intravenous route. Animals in treatment groups received two injections (0.1 ml) of 5-FU at interval of 4 days whereas control mice received saline (0.1 ml). The total dose of 5-FU administered was 125 mg/kg. At the end of the experiment animals were sacrificed, tumor tissue was surgically removed and fixed in 10% formalin at 4° C. for histochemical staining.
For histochemical staining, paraffin-embedded tissue sections (5 μm) were stained with hematoxylin and eosin (H&E) to evaluate and compare the extent of tissue viability. The tumor sections were scanned and qualitative images captured using brightfield microscopy (Olympus BX61WI, NY). The number of tumor cells in each section was quantified using bioquant imaging software and expressed as percent of total tumor area. To quantify the total tumor area we first traced the outline of the entire tumor section in each field of view (FOV). The pixels within the traced area were then selected and the pixel count was determined by the software. A total of five FOV were analyzed to determine the total pixel count of the tumor area. Microscope stage encoders were used to ensure that no tumor area was counted more than once. Similarly the total pixel count of the neoplastic cells featured in blue in each FOV was determined. The total percent of neoplastic cell density was calculated as follows: […]
For these studies the pancreatic cell line, Capan-1 was used to used to establish a pancreatic tumor model. Capan-1 tumors were established in subcutaneous dorsa of female SCID mice (see, Example 7). […] 5-FU therapy began when the tumor size was approximately 100 mm^3.

[14] = tested on: U-87 MG cells; details: 72 hr exposure
Procedure: In order to determine the contribution of MUC1 expression in the delivery of drugs such as 5-FU to pancreatic tumors, the maximum non-toxic concentration of benzyl-α-GalNAc that could be used to inhibit O-glycosylation of MUC1 was determined from cellular toxicity studies. These cellular toxicity studies were performed as follows. Cells were seeded at 1×10^4 per ml in 48-well plates. Following a 24 hr incubation period at 37° C., cells were exposed to various concentrations of benzyl-α-GalNAc solution (Sigma-Aldrich, St. Louis, Mo.) prepared in media. After 72 hr of cell exposure to benzyl-α-GalNAc, the percent of cell viability was determined using sulforhodamine B assay (Kalra et al., Pharm. Res., 23(12):2809-2817 (2006); Skehan et al., J. Natl. Cancer Inst,. 82:1107-1112 (1990)) and calculated as follows:

[15] = 24 hr, 48 hr, or 72 hr exposure at maximum non-toxic concentration
[16] = 48 hr exposure then fresh media

Compound	Percent increase in chemotherapeutic activity (chemotherapeutic benefit) when pretreated with benzyl-α-GalNAc [1]	maximum non-toxic concentration [2]	maximum non-toxic concentration [3]	morphological structures of cells compared to cells not exposed [4]	anti-MUC1 (CD227) antibody association, fluorescence intensity vs cells not exposed [5, 15]	FACS analysis of CD227 association vs cells not exposed ([5]; 48 hr exposure)	anti-MUC1 (CD227) antibody association, fluorescence intensity vs cells not exposed [6, 15]	FACS analysis of CD227 association vs cells not exposed ([6]; 48 hr exposure)	FACS analysis of CD227 association vs cells not exposed [7]	benzyl-α-GalNAc concentration at which decrease of percent cell viability vs 5-FU alone was significant [8]	effect on growth post-removal of inhibitor vs untreated controls ([9]; 0.4 mg/ml for 48 hr, then 24 hr, 48 hr, 72 hr in fresh media)	morphology (DIC images) post-removal of inhibitor [9, 16]	effect on growth post-removal of inhibitor vs untreated controls ([10]; 0.8 mg/ml for 48 hr, then 24 hr, 48 hr, 72 hr in fresh media)	morphology (DIC images) post-removal of inhibitor [10, 16]	staining for MUC1 O-glycosylation vs tumors not exposed [11]	staining for MUC1 O-glycosylation vs tumors not exposed [12]	histochemical staining of tumor sections, neoplastic cells ([13]; H&E stained sections)	tumor volume compared to control tumors (saline group) ([13]; benzyl-α-GalNAc intratumoral days 4, 6, 8, 10, 5-FU intravenous, total 125 mg/kg)	Percent Tumor Area (neoplastic cell density as percent of total tumor area) ([13]; bioquant imaging software, tumor sections at end of experiment)	tolerated concentration [14]
N.N.O=C([O-])C1(C(=O)[O-])CCC1.[Pt+2] [Carboplatin]	33%	–	–	–	–	–	–	–	–	–	–	–	–	–	–	–	–	–	–	–
CC(=O)N[C@H]1[C@@H](OCc2ccccc2)O[C@H](CO)[C@H](O)[C@@H]1O [benzyl-α-GalNAc, benzyl-2-acetamido-2-deoxy-α-D-galactopyranoside]	–	0.4 mg/mL	0.8 mg/mL	no visible difference	significantly enhanced	shift in fluorescence peaks	significantly enhanced	shift in fluorescence peaks	no shift in peak	≥ 0.4 mg/mL	No significant effect	no visible morphological changes	No significant effect	no visible morphological changes	Lower staining	Lower staining	dense packing of neoplastic cells	No difference	28.3 ± 1.8%	> 0.8 mg/mL
